From US20160166676A1 (priority 2013, published 2016)

Experiments:
CTLL-2 cells = type: cell-based
[1] = tested on: BMDCs infected with Influenza A virus; type: cell-based

## DRGWGNGCGLFGKG [FLV IS mono/1]
CTLL-2 cells
  proliferation of CTLL-2 cells: has no effect

## GLFGAIAGFIENGWEGGGGEKEKEK [INF F#2 C17G]
[1]
  interferon response to influenza infection in vitro: enhances the interferon response

## GLFGAIAGFIENGWEGCGGEKEKEK [IN F#2 monomer]
CTLL-2 cells
  effect of mixing the monomer with the dimeric peptide on the suppressive activity of the dimer: completely removes the suppressive activity of the dimers
  proliferation of CTLL-2 cells: has no effect
